Measurements as given in patent publication US11040056B2, “Benzimidazoles that enhance the activity of oligonucleotides” (The University of North Carolina at Chapel Hill, priority 2018, dated 2021).

What was measured:
NIH-3T3-MDR cells = experiment: Alamar Blue cytotoxicity assay; type: cell-based; details: 2 h exposure, then 24 h, FIG. 1E
Method: FIG. 1B-1E. Effects with SSOs. FIG. 1B Structure of UNC2383. FIG. 1C Compound 2383 enhances SSO effects. Cells were incubated in 24-well plates with 100 nM SSO623 or its mismatched control (MM) for 16 h in DMEM+10% FBS, rinsed and then treated with various concentrations of 2383 for 2 h. The cells were then rinsed and incubation continued for an additional 4 h in DMEM+10% FBS. Cells were rinsed twice in PBS and luciferase activity (RLU) and cell protein determined. The larger round symbol indicates the MM oligonucleotide. Means+/−SE. N=3. FIG. 1D Kinetics of 2383 action. Cells were preloaded with 100 nM SSO623 and then exposed to 2383 for various periods after which the compound was removed. The cells were further incubated and then luciferase and protein determined. The total time of incubation in each case was 6 h. FIG. 1E Cytotoxicity of 2383. HeLa Luc705 or NIH-3T3-MDR cells were exposed to 2383 as in (FIG. 1C) then incubated for 24 h in DMEM plus 10% FBS and tested using the Alamar Blue cytotoxicity assay. Means+/−SE. N=3.
SSO-mediated luciferase induction assays were conducted as previously described. (18) In short, HeLaLuc705 cells in 24 well culture plates were preincubated with SSO623 followed by brief treatment with the small molecule; at intervals thereafter, luciferase activity and protein content were determined. […] Cytotoxicity of 2383 was monitored using the Alamar Blue assay. […]

HeLa Luc 705 cells = experiment: Confocal microscopy of endomembrane permeability and oligonucleotide localization; type: cell-based; details: 2 h
Method: FIG. 5A-5B. Effect on endomembrane permeability. FIG. 5A: HeLa Luc 705 cells (50 000) were seeded into glass-bottom dishes and incubated at 37° C. for attachment. Alexa 488-Dextran 10K (200 μg/mL) or TAMRA SSO 623 (2.5 μM) were added into the medium and the cells incubated for 24 h. Cells were washed with PBS and then placed back in the medium and treated with UNC2383 for 2 h or maintained as controls. Cells were rinsed after drug treatment. Live cells were imaged with an Olympus FV1200 or a Zeiss LSM710 confocal microscope. For the studies with Alexa 488 Dextran, the controls are shown in image panels a and b while cells treated with 10 μM UNC2383 are in image panels c and d. […] Images e and f are composites of TAMRA, Hoechst, and DIC images, and the pink coloration in f indicates overlap of the TAMRA and Hoechst fluorescence. Images are typical of three independent assays. Intensity settings were identical for fluorescence images with or without UNC2383. FIG. 5B quantitates the TAMRA fluorescence in the nucleus for controls versus cells treated with 5 μM UNC2383, as measured using Fiji software, with Hoechst stain used to delineate the nucleus (N=12).
FIG. 6. Confocal images of compound effects on nuclear distribution of a fluorescent oligonucleotide. […] Nuclei lacking fluorescence are indicated with gray arrows. […]
FIG. 7A-7B. […] Composite images showing TAMRA fluorescence, GFP, and DIC are provided. […]
Effects of UNC2383 on endosome stability were monitored in cell culture models as previously described. […] Live cells were imaged by fluorescence confocal microscopy with or without treatment with UNC2383 or its analogs. […] Co-localization of TAMRA labeled SSO 623 with marker proteins was quantitated using Fiji (ImageJ) software and expressed as a Manders' Correlation Coefficient. […] EGFP protein expression was monitored by immunostaining with an anti-EGFP antibody (Abcam) using techniques previously described. (3) EGFP immunostaining was analyzed using a Leica SP2 confocal microscope with acquisition parameters constant throughout the study: images were processed with Adobe Photoshop software. […]

SMILES: O=C(Nc1nc2ccccc2n1CCN1CCCC1)c1cc2cc(Cl)ccc2o1 [UNC2383]
- concentrations showing little toxicity (NIH-3T3-MDR cells): ≤ 10 µM
- relocalization of TAMRA labeled SSO to the nucleus (HeLa Luc 705 cells; 5 μM): partial but substantial relocalization
- colocalization of TAMRA-SSO with late endosomes and lysosomes (Manders' Correlation Coefficient) (HeLa Luc 705 cells; 5 μM, GFP-Rab7, GFP-LAMP1): substantially reduced
- release of Alexa 488-Dextran from vesicular entrapment (HeLa Luc 705 cells; 10 μM): partial release
